The values that follow are results of earlier work, collected in US7939102B2, “Controlled release formulation of lamotrigine” (Torrent Pharmaceuticals Ltd., priority 2003, dated 2011).

Structures are written as SMILES.

Assay in data set [1]: not given
This is another data set of the same source.

The next data set relates to seizures. The following applies: acute and chronic studies in humans (Betts et al, 1991).

Take `Nc1nnc(-c2cccc(Cl)c2Cl)c(N)n1` [lamotrigine, 3,5-diamino-6(2,3-dichlorophenyl)-1,2,4-triazine]: the “dose dependence of plasma concentrations” value (Ramsay RE, 1991) was “vary linearly with the dose”. The “increase of plasma concentrations with concomitant sodium valproate” value (valproate reduces hepatic clearance, for a given dose) was “approximately two fold”. For the same compound, in data set [1] (Binnie et al., 1987, side effects only in patients above this level), the “plasma levels at which side effects were reported” value is reported as “above 3 μg/ml”. Also, the “incidence of side effects (dizziness, ataxia, diplopia, somnolence, headache, asthenia)” value in data set [1] (Ramsay RE, 1991) was “around 10%”. For the same compound, the “patients reporting headache and ataxia” value in data set [1] (first 18 weeks of treatment, at >10 μg/ml) was 100%. Also, in data set [1] (first 18 weeks of treatment, mean concentration of 6.00 to 7.99 μg/ml), the “patients reporting nausea and vomiting” value was 16.7%. Besides, in data set [1] (placebo-controlled trials), the “discontinuation of therapy due to rash” value is recorded as 1% and the patients with rash was 10%. The “patients removed from clinical trials because of adverse experiences” value in data set [1] (rash, nausea/vomiting, CNS-related events) is reported as 8.6%. Also, the “lamotrigine levels effective in controlling seizures” value in the data set on seizures is 1 to 3 µg/mL.
